Results from US20260028365A1 (BIOGEN MA INC., priority 2022, published 2026).

Assays:
JAK1 = JAK1 (Homo sapiens (Human), UniProt P23458); test: pSTAT3 Cell Assay (MSD, TF1 cells); assay type: cell-based; conditions: MSD
Protocol: The inhibitory potency of compounds of the disclosure against the JAK1 kinase activity on STAT3 was evaluated using an MSD-platform plate-based assay format. TF1 cells natively expressing STAT3 and JAK1 were serum-starved to reduce background phosphorylation levels, then cells were treated with compounds of the disclosure for 1 hour with a 10-point four-fold dilution series starting at 10 μM. Cells were then stimulated with 30 ng/mL interleukin 6 (IL-6) for 15 minutes. Cells were lysed and pSTAT3 levels were quantitated using an MSD plate-based assay with anti-STAT3 antibodies. The data were normalized and the percent activity versus log concentration of compound was fitted with a 4-parameter logistic model to generate IC50 curves.

Tyk2 = Tyk2 (Homo sapiens (Human), UniProt P29597); test: pSTAT4 Cell Assay (MSD, NK92 cells); assay type: cell-based; conditions: MSD
JH2 domain of human Tyk2 = JH2 domain of human Tyk2 (Homo sapiens (Human), UniProt P29597); test: JH2 Biochemical Assay (TR-FRET probe displacement); assay type: binding
JAK2 = JAK2 (Homo sapiens (Human), UniProt O60674); test: pSTAT5 Cell Assay (MSD, TF1 cells); assay type: cell-based; conditions: MSD
Protocol: Compounds of the disclosure were assessed for their ability to inhibit the JAK2 kinase activity on STAT5 utilizing an MSD-platform plate-based assay format. TF1 cells natively expressing STAT5 and JAK2 were serum-starved to reduce background phosphorylation levels, then cells were treated with compounds of disclosure for 1 hour with a 10-point four-fold dilution series starting at 10 μM. Cells were then stimulated with 30 ng/mL IL-3 for 15 minutes. Cells were then lysed and pSTAT5 levels were quantitated using an MSD plate-based assay with anti-STAT5 antibodies. The data were normalized and the percent activity versus log concentration of compound was fitted with a 4-parameter logistic model to generate a curve and an IC50 value.

[1] = TR-FRET probe displacement, JH2 domain of human Tyk2
[2] = JH2 domain of human Tyk2, TR-FRET probe displacement

Chain of Tyk2 (P29597 whole entry, the tested form may be a part): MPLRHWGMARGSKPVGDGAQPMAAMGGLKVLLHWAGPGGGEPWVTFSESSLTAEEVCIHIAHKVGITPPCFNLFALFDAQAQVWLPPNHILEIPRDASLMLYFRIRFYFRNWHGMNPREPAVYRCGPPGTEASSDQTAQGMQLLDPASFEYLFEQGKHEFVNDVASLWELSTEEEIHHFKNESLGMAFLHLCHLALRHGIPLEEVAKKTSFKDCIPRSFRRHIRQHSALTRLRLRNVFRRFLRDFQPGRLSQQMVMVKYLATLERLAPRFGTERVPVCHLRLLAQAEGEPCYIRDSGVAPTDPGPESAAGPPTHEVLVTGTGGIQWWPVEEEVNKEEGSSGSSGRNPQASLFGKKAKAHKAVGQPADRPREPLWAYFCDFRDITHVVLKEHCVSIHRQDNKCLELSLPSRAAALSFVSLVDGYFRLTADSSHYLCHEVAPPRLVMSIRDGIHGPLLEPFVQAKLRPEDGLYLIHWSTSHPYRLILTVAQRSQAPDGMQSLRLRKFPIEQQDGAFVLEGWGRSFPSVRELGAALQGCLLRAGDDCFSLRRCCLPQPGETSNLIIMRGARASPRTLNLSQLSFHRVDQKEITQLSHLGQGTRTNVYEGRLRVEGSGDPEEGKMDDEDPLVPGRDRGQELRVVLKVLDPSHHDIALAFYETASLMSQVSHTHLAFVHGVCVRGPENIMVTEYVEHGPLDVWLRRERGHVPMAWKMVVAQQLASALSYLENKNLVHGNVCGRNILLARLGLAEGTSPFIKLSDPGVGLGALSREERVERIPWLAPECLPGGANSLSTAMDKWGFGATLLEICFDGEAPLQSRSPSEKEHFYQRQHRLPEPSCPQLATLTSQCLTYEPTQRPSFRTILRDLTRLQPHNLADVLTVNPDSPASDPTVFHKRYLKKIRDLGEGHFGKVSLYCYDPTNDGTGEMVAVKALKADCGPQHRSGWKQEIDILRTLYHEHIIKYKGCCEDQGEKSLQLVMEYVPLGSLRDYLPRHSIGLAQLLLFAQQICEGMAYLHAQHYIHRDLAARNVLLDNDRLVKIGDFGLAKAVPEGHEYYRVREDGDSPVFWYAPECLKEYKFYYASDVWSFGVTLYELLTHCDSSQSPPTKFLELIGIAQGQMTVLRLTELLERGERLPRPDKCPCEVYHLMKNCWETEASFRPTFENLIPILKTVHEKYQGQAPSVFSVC
Chain of JH2 domain of human Tyk2 (P29597 575-876): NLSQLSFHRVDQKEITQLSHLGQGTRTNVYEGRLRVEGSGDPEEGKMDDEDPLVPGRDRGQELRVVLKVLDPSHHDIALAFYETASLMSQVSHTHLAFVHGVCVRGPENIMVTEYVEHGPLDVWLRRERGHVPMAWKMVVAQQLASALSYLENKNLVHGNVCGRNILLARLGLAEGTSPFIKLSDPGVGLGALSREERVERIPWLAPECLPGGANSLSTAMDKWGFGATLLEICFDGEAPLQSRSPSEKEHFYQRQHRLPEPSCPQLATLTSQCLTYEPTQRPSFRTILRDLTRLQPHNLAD
Chain of JAK2 (O60674 whole entry): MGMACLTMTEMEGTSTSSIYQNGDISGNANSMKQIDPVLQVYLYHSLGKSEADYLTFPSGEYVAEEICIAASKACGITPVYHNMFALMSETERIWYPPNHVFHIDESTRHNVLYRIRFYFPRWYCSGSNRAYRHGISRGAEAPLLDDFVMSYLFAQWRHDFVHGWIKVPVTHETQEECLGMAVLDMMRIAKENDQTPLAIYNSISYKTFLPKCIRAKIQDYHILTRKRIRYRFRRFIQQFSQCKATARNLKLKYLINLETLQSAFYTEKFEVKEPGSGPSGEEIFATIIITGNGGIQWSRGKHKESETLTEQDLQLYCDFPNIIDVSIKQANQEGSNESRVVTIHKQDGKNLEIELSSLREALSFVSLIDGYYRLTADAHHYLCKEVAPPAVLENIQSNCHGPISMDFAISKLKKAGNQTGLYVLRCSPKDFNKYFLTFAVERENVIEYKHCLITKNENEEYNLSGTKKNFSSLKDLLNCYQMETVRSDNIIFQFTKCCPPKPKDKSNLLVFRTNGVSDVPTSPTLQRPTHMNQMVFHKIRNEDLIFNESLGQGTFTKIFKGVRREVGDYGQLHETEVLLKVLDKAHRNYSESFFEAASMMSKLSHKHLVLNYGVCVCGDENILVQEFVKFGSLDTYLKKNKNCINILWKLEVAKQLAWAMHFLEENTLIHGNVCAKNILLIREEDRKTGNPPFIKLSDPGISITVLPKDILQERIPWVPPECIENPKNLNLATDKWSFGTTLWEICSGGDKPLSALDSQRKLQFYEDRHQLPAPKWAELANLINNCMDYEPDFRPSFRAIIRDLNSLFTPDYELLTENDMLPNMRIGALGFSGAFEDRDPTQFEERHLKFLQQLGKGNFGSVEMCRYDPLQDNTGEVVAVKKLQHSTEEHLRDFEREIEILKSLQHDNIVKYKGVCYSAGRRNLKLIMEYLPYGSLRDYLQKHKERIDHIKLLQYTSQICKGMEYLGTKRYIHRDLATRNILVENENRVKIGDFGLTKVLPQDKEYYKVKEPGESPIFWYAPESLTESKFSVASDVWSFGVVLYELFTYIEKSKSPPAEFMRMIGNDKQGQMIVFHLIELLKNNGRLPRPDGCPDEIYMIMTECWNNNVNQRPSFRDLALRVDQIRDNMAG
Chain of JAK1 (P23458 whole entry): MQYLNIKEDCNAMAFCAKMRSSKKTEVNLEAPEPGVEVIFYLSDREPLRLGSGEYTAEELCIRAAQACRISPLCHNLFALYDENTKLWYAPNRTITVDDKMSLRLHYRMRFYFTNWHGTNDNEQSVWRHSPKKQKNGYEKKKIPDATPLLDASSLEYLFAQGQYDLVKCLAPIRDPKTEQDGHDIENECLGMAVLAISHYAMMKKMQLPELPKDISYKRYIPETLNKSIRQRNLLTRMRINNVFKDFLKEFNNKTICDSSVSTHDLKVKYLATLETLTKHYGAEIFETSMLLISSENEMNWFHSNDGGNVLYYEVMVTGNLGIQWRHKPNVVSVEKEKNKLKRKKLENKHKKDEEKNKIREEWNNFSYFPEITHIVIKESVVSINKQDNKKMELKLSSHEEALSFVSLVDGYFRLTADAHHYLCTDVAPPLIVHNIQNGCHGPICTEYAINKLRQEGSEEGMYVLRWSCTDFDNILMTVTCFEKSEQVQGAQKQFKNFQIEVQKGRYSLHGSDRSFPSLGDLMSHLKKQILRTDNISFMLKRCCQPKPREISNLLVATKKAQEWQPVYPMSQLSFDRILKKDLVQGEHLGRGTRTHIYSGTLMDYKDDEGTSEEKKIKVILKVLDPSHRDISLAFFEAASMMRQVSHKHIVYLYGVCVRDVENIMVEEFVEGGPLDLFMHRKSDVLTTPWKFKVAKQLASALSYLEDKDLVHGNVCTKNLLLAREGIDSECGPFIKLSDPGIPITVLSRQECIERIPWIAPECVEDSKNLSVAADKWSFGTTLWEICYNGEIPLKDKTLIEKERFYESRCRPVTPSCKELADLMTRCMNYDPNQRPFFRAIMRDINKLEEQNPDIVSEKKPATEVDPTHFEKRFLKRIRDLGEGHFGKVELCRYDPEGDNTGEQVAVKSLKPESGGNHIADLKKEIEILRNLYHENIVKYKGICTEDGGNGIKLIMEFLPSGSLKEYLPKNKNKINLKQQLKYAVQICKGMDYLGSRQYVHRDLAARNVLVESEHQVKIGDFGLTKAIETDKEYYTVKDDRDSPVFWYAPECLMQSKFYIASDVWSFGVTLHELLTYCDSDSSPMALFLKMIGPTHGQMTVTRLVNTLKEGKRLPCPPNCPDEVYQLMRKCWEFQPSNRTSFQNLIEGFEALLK

SMILES	IC50 (JAK1; IL-6 stimulation)	IC50 (Tyk2)	IC50 (JH2 domain of human Tyk2; [1])	IC50 (JAK2; IL-3 stimulation)	IC50 (JAK1; IL-6 stimulated)	IC50 (JH2 domain of human Tyk2; [2])	IC50 (JAK2; IL-3 stimulated)
CCc1cc(Nc2cc(NC(C)=O)ncc2-c2ccc(CN3CCOCC3)cn2)nc(C(C)(F)F)n1 [Example 268, N-(4′-((2-(1,1-difluoroethyl)-6-ethylpyrimidin-4-yl)amino)-5-(morpholinomethyl)-[2,3′-bipyridin]-6′-yl)acetamide]	≥ 1000 nM	≤ 10 nM	≤ 10 nM	≥ 1000 nM	–	–	–
CC(=O)Nc1cc(Nc2cc(C)nc(C(C)(F)F)n2)c(-c2ncc(C#N)cn2)cn1 [Example 655, N-(5-(5-cyanopyrimidin-2-yl)-4-((2-(1,1-difluoroethyl)-6-methylpyrimidin-4-yl)amino)pyridin-2-yl)acetamide]	–	10 to 100 nM	–	–	≥ 1000 nM	≤ 10 nM	≥ 1000 nM
COCCOc1cnc(NC(C)=O)cc1Nc1cc(OC(C)C)nc(C(C)(F)F)n1 [Example 76, N-(4-((2-(1,1-difluoroethyl)-6-isopropoxypyrimidin-4-yl)amino)-5-(2-methoxyethoxy)pyridin-2-yl)acetamide]	≥ 1000 nM	≤ 10 nM	≤ 10 nM	≥ 1000 nM	–	–	–
CC(=O)Nc1cc(Nc2cc(C)nc(C(C)(F)F)n2)c(OCC2CC2)cn1 [Example 11, N-(5-(cyclopropylmethoxy)-4-((2-(1,1-difluoroethyl)-6-methylpyrimidin-4-yl)amino)pyridin-2-yl)acetamide]	≥ 1000 nM	10 to 100 nM	≤ 10 nM	≥ 1000 nM	–	–	–
COCCOc1cnc(NC(C)=O)cc1Nc1cc(C)nc(C(C)(F)F)n1 [Example 22, N-(4-((2-(1,1-difluoroethyl)-6-methylpyrimidin-4-yl)amino)-5-(2-methoxyethoxy)pyridin-2-yl)acetamide]	≥ 1000 nM	≤ 10 nM	≤ 10 nM	≥ 1000 nM	–	–	–
CC(=O)Nc1cc(Nc2cc(C)nc(C(C)(F)F)n2)c(OCc2ccccn2)cn1 [Example 101, N-(4-((2-(1,1-difluoroethyl)-6-methylpyrimidin-4-yl)amino)-5-(pyridin-2-ylmethoxy)pyridin-2-yl)acetamide]	≥ 1000 nM	10 to 100 nM	≤ 10 nM	≥ 1000 nM	–	–	–
CCc1cc(Nc2cc(NC(C)=O)ncc2-c2coc(C)n2)nc(C(C)(F)F)n1 [Example 584, N-(4-((2-(1,1-difluoroethyl)-6-ethylpyrimidin-4-yl)amino)-5-(2-methyloxazol-4-yl)pyridin-2-yl)acetamide]	–	≤ 10 nM	–	–	≥ 1000 nM	≤ 10 nM	≥ 1000 nM
COc1cnc(NC(C)=O)cc1Nc1cc(C)nc(C(C)(F)F)n1 [Example 46, N-(4-((2-(1,1-difluoroethyl)-6-methylpyrimidin-4-yl)amino)-5-methoxypyridin-2-yl)acetamide]	≥ 1000 nM	10 to 100 nM	≤ 10 nM	≥ 1000 nM	–	–	–
CC(=O)Nc1cc(Nc2cc(C)nc(C(C)(F)F)n2)c(-c2ncccn2)cn1 [Example 668, N-(4-((2-(1,1-difluoroethyl)-6-methylpyrimidin-4-yl)amino)-5-(pyrimidin-2-yl)pyridin-2-yl)acetamide]	–	≤ 10 nM	–	–	≥ 1000 nM	≤ 10 nM	≥ 1000 nM
CC(=O)Nc1cc(Nc2cc(C)nc(C(C)(F)F)n2)c(-c2ncc(OC(F)F)cn2)cn1 [Example 660, N-(4-((2-(1,1-difluoroethyl)-6-methylpyrimidin-4-yl)amino)-5-(5-(difluoromethoxy)pyrimidin-2-yl)pyridin-2-yl)acetamide]	–	≤ 10 nM	–	–	≥ 1000 nM	≤ 10 nM	≥ 1000 nM
CO[C@H]1C[C@H](Oc2cnc(NC(C)=O)cc2Nc2cc(OC3CC3)nc(C(C)(F)F)n2)C1 [Example 350, N-(4-((6-cyclopropoxy-2-(1,1-difluoroethyl)pyrimidin-4-yl)amino)-5-((1r,3r)-3-methoxycyclobutoxy)pyridin-2-yl)acetamide]	≥ 1000 nM	10 to 100 nM	≤ 10 nM	≥ 1000 nM	–	–	–
CC(=O)Nc1cc(Nc2ccnc(C(C)(F)F)n2)c(-c2cnn(C(C)C)n2)cn1 [Example 708, N-(4-((2-(1,1-difluoroethyl)pyrimidin-4-yl)amino)-5-(2-isopropyl-2H-1,2,3-triazol-4-yl)pyridin-2-yl)acetamide]	–	≤ 10 nM	–	–	≥ 1000 nM	≤ 10 nM	≥ 1000 nM
COCCOc1cnc(NC(C)=O)cc1Nc1cc(OC)nc(C(C)(F)F)n1 [Example 21, N-(4-((2-(1,1-difluoroethyl)-6-methoxypyrimidin-4-yl)amino)-5-(2-methoxyethoxy)pyridin-2-yl)acetamide]	≥ 1000 nM	10 to 100 nM	≤ 10 nM	≥ 1000 nM	–	–	–
CCOc1cnc(NC(=O)OC)cc1Nc1cc(C)nc(C(C)(F)F)n1 [Example 360, methyl (4-((2-(1,1-difluoroethyl)-6-methylpyrimidin-4-yl)amino)-5-ethoxypyridin-2-yl)carbamate]	≥ 1000 nM	10 to 100 nM	≤ 10 nM	≥ 1000 nM	–	–	–
COCCOc1cnc(NC(C)=O)cc1Nc1cc(C2CC2)nc(C(C)(F)F)n1 [Example 66, N-(4-((6-cyclopropyl-2-(1,1-difluoroethyl)pyrimidin-4-yl)amino)-5-(2-methoxyethoxy)pyridin-2-yl)acetamide]	≥ 1000 nM	≤ 10 nM	≤ 10 nM	≥ 1000 nM	–	–	–
CC(=O)Nc1cc(Nc2ccnc(C(C)(F)F)n2)c(-c2ccc(N(C)C)cn2)cn1 [Example 276, N-(4′-((2-(1,1-difluoroethyl)pyrimidin-4-yl)amino)-5-(dimethylamino)-[2,3′-bipyridin]-6′-yl)acetamide]	≥ 1000 nM	≤ 10 nM	≤ 10 nM	≥ 1000 nM	–	–	–
COc1cc(-c2cnc(NC(C)=O)cc2Nc2ccnc(C(C)(C)F)n2)ncn1 [Example 195, N-(4-((2-(2-fluoropropan-2-yl)pyrimidin-4-yl)amino)-5-(6-methoxypyrimidin-4-yl)pyridin-2-yl)acetamide]	≥ 1000 nM	10 to 100 nM	≤ 10 nM	≥ 1000 nM	–	–	–
[2H]C([2H])([2H])C([2H])([2H])Oc1cnc(NC(C)=O)cc1Nc1cc(OC2CC2)nc(C(C)(F)F)n1 [Example 489, N-(4-((6-cyclopropoxy-2-(1,1-difluoroethyl)pyrimidin-4-yl)amino)-5-(ethoxy-d5)pyridin-2-yl)acetamide]	–	≤ 10 nM	–	–	≥ 1000 nM	≤ 10 nM	≥ 1000 nM
CCOc1cnc(NC(C)=O)cc1Nc1cc(O[C@H]2C[C@H](OC)C2)nc(C(C)(F)F)n1 [Example 16, N-(4-((2-(1,1-difluoroethyl)-6-((1r,3r)-3-methoxycyclobutoxy)pyrimidin-4-yl)amino)-5-ethoxypyridin-2-yl)acetamide]	≥ 1000 nM	≤ 10 nM	≤ 10 nM	≥ 1000 nM	–	–	–
CC(=O)Nc1cc(Nc2cc(C)nc(C(C)(F)F)n2)c(-c2ncc(F)cn2)cn1 [Example 182, N-(4-((2-(1,1-difluoroethyl)-6-methylpyrimidin-4-yl)amino)-5-(5-fluoropyrimidin-2-yl)pyridin-2-yl)acetamide]	≥ 1000 nM	10 to 100 nM	≤ 10 nM	≥ 1000 nM	–	–	–
COCCOc1cnc(NC(C)=O)cc1Nc1cc(C(C)C)nc(C(C)(F)F)n1 [Example 300, N-(4-((2-(1,1-difluoroethyl)-6-isopropylpyrimidin-4-yl)amino)-5-(2-methoxyethoxy)pyridin-2-yl)acetamide]	≥ 1000 nM	≤ 10 nM	≤ 10 nM	≥ 1000 nM	–	–	–
CC(=O)Nc1cc(Nc2cc(C)nc(C(C)(F)F)n2)c(O)cn1 [Example 486, N-(4-((2-(1,1-difluoroethyl)-6-methylpyrimidin-4-yl)amino)-5-hydroxypyridin-2-yl)acetamide]	–	≥ 1000 nM	–	–	≥ 1000 nM	10 to 100 nM	≥ 1000 nM
CCOc1cnc(NC(C)=O)cc1Nc1cc(OC)nc(C(C)(F)F)n1 [Example 5, N-(4-((2-(1,1-difluoroethyl)-6-methoxypyrimidin-4-yl)amino)-5-ethoxypyridin-2-yl)acetamide]	≥ 1000 nM	10 to 100 nM	≤ 10 nM	≥ 1000 nM	–	–	–
CC(=O)Nc1cc(Nc2cc(C)nc(C(C)(F)F)n2)c(OC(C)C)cn1 [Example 39, N-(4-((2-(1,1-difluoroethyl)-6-methylpyrimidin-4-yl)amino)-5-isopropoxypyridin-2-yl)acetamide]	≥ 1000 nM	10 to 100 nM	≤ 10 nM	≥ 1000 nM	–	–	–
[2H]C([2H])([2H])C([2H])([2H])Oc1cnc(NC(C)=O)cc1Nc1cc(CC)nc(C(C)(F)F)n1 [Example 515, N-(4-((2-(1,1-difluoroethyl)-6-ethylpyrimidin-4-yl)amino)-5-(ethoxy-d5)pyridin-2-yl)acetamide]	–	10 to 100 nM	–	–	≥ 1000 nM	≤ 10 nM	≥ 1000 nM
